Data as given in paper PMC7883726 (Acta Pharmaceutica Sinica. B, 2021).
pEC50: −log10 of the molar value. “Also recorded” adds a separate entry of the source. Like-named read-outs stand apart in the source and are kept apart here.

How the values were obtained:
HCoV-OC43 = HCoV-OC43 cytopathic effects; assay type: cell-based
HEK293T cells = settings: below 50 μmol/L, CCK-8
SARS-CoV-2 = settings: read-out: EC50 SARS-CoV-2 in vitro; cited from earlier work
SARS-CoV-2 RdRp [1] = biological target: T1, SARS-CoV-2 RdRp (Severe acute respiratory syndrome coronavirus 2, UniProt P0DTD1); experiment: biochemical; settings: read-out: inhibition of polymerase activity
SARS-CoV-2 RdRp [2] = biological target: T1, SARS-CoV-2 RdRp; experiment: cell-based
[3] = biological target: SARS-CoV-2 RdRp with nsp10–nsp14 exoribonuclease complex (Severe acute respiratory syndrome coronavirus 2, UniProt P0DTD1); assay type: cell-based; settings: with versus without nsp10–nsp14
SARS-CoV-2 Mpro = SARS-CoV-2 Mpro (Severe acute respiratory syndrome coronavirus 2, UniProt P0DTD1); experiment: SARS-CoV-2 Mpro enzyme activity inhibition assay; assay type: biochemical; settings: 10 μmol/L
[4] = cited from earlier work
[5] = orally administered, cited from earlier work
[6] = rats, orally administered; cited from earlier work

With `CCC(CC)COC(=O)[C@H](C)N[P@](=O)(OC[C@H]1O[C@@](C#N)(c2ccc3c(N)ncnn23)[C@H](O)[C@@H]1O)Oc1ccccc1` [remdesivir, reference compound] as the compound, how does the “concentration protecting cells from CPE induced by HCoV-OC43” value (HCoV-OC43) read?
The value was 0.39 µmol/L.

What about the “cytotoxicity on HEK293T cells” value (HEK293T cells) of the same compound?
The value was “Neither remdesivir nor RAI-S-37 showed cytotoxicity”.

With `NC(=O)c1ncn([C@@H]2O[C@H](CO)[C@@H](O)[C@H]2O)n1` [ribavirin] as the compound, how does the pEC50 (SARS-CoV-2) read?
The pEC50 was 3.96.

With `O=C(O[C@@H]1O[C@@H]2COC(=O)c3cc(O)c(O)c(O)c3-c3c(cc(O)c(O)c3O)C(=O)O[C@H]([C@H]1O)[C@@H]2O)c1cc(O)c(O)c(O)c1` [RAI-S-37, Corilagin] as the compound, how does the inhibition at 2.5 µM (SARS-CoV-2 RdRp [1]) read?
The inhibition at 2.5 µM was 24%.

What about the inhibition at 10 µM (SARS-CoV-2 RdRp [1]) of the same compound?
The inhibition at 10 µM was 73%.

What about the inhibition at 40 µM (SARS-CoV-2 RdRp [1]) of the same compound?
The inhibition at 40 µM was 83%.

And the pEC50 (SARS-CoV-2 RdRp [2])?
The pEC50 was 5.48.

What about the “fold increase in EC50 on expression of nsp10–nsp14” value [3] of the same compound?
Its value is “same EC50 values; also recorded: remain the same”.

And the “concentration protecting cells from CPE induced by HCoV-OC43” value (HCoV-OC43)?
The value was 0.78 µmol/L.

What about the “inhibitory effect on SARS-CoV-2 Mpro” value (SARS-CoV-2 Mpro) of the same compound?
The value was “did not show any inhibitory effect”.

What about the “cytotoxicity on HEK293T cells” value (HEK293T cells) of the same compound?
The value was “Neither remdesivir nor RAI-S-37 showed cytotoxicity”.

And the LD50 [4]?
The LD50 was 3500–5000 mg/kg b. wt.

What about the “acute dose showing maximum tolerance” value [4] of the same compound?
Its value is “up to 3500 mg/kg body weight (b.wt.)”.

What about the “toxicity in acute toxicity studies” value ([4]; oral) of the same compound?
Its value is “did not show any toxicity”.

And the “half lifetime (t1/2)” value ([5]; mice and rats)?
The value was “about 6 h”.

And the “time to Cmax (Tmax)” value ([5]; mice and rats)?
Its value is about 2 h.

What about the “maximum plasma concentration (Cmax)” value ([5]; mice) of the same compound?
Its value is 57.0 µg/mL.

What about the “maximum plasma concentration (Cmax)” value [6] of the same compound?
The value was 52.37 µg/mL.
